# Data taken from patent US20250059188A1, “ARYLSULPHONAMIDE COMPOUNDS” (Anaxis Pharma Pty Ltd, priority 2021, published 2025).
# Experiments:
# human MLKL (full length) = human MLKL (full length) (Homo sapiens (Human), UniProt Q8NB16); assay: KINOMEscan binding assay, human MLKL (full length); settings: equilibrium dissociation constant
# Method in brief: (§1)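 Active-site competition binding: DNA-tagged kinase (T7 phage fusion from BL21-derived E. coli lysate, or HEK-293-expressed) captured on immobilized-ligand beads, with bound kinase in the eluate quantified by qPCR. Compounds ran as 11-point 3-fold dilutions, 1% DMSO, top 30,000 nM for most. Kd came from a Hill fit (slope −1).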
# human RIPK3 = human RIPK3 (Homo sapiens (Human), UniProt Q9Y572); assay: KINOMEscan binding assay, human RIPK3; settings: equilibrium dissociation constant
# Method in brief: as §1
# human RIPK1 = human RIPK1 (Homo sapiens (Human), UniProt Q13546); assay: KINOMEscan binding assay, human RIPK1; settings: equilibrium dissociation constant
# Method in brief: as §1
# mouse MLKL (full length) = mouse MLKL (full length) (Mus musculus (Mouse), UniProt Q9D2Y4); assay: KINOMEscan binding assay, mouse MLKL (full length); settings: equilibrium dissociation constant
# Experimental: Binding affinity of the test compounds for human MLKL (full length), mouse MLKL (full length), human RIPK1 and human RIPK3 was determined using the KINOMEscan™ technology developed by DiscoverX (USA; http://www.discoverx.com). The assay was conducted according to manufacturer instructions.
# Kinase assays. For most assays, kinase-tagged T7 phage strains were grown in parallel in 24-well blocks in an E. coli host derived from the BL21 strain. E. coli were grown to log-phase and infected with T7 phage from a frozen stock (multiplicity of infection=0.4) and incubated with shaking at 32° C. until lysis (90-150 minutes). The lysates were centrifuged (6,000×g) and filtered (0.2 μm) to remove cell debris. The remaining kinases were produced in HEK-293 cells and subsequently tagged with DNA for qPCR detection. […] The liganded beads were blocked with excess biotin and washed with blocking buffer (SeaBlock (Pierce), 1% BSA, 0.05% Tween 20, 1 mM DTT) to remove unbound ligand and to reduce non-specific phage binding. […] All reactions were performed in polypropylene 384-well plates in a final volume of 20 μL. […] The kinase concentration in the eluates was measured by qPCR.
# An 11-point 3-fold serial dilution of each test compound was prepared in 100% DMSO at 100× final test concentration and subsequently diluted to 1× in the assay (final DMSO concentration=1%). Most Kos were determined using a compound top concentration=30,000 nM.
# KD for each test compound was calculated with a standard dose-response curve using the Hill equation (equation (1)): […]
# The Hill Slope was set to −1.
# Curves were fitted using a non-linear least square fit with the Levenberg-Marquardt algorithm.
# U937 cells = assay: Counter screen: U937 cell viability without TSQ cocktail (off-target effect); design: species or system human; settings: Homo sapiens, U-937, compound without TSQ cocktail, read-out: Off-target effect (IC50 cell-based assay)
# Method in brief: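 Off-target viability counter screen: compounds titrated 36 μM down 1:3 over 10 points (0.3% DMSO) on 20,000 U937 cells/well, no TNF/Smac mimetic/Q-VD-OPh added, 48 h incubation. ATP-based CellTiter-Glo luminescence, four-parameter logistic IC50.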
# [1] = system: U937 human histiocytic leukemia cell line; assay: Inhibition of TSQ induced necroptosis in U937 cells (CellTitre-Glo); settings: Homo sapiens, U-937, TSQ cocktail (TNF, Smac mimetic, Q-VD-OPh), 48 hours, read-out: Inhibition of TSQ-induced necroptosis (IC50 cell-based assay)
# Method in brief: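 Necroptosis was induced with TNF-Fc (100 ng/ml), Smac mimetic (500 nM) and Q-VD-OPh (10 μM) in 20000 U937 cells/well exposed to a 10-point, 3-fold compound series (top 36 μM, 0.3% DMSO). ATP luminescence read after 48 h; 4-parameter fit gave IC50. Parallel TSQ-free wells assessed compound toxicity.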
# [2] = system: Immortalised Mouse Dermal Fibroblasts (MDFs); assay: Inhibition of TSI induced necroptosis in mouse dermal fibroblasts (CellTitre-Glo); settings: Mus musculus, Fibroblast, 3 h, MDF cells, TSI cocktail (TNF, Smac mimetic, IDN-6556), read-out: Inhibition of TSI-induced necroptosis (IC50 cell-based assay) in MDF
# Experimental: Cellular Assay: Screening Compounds for Inhibition of TSI Induced Necroptosis in, 384 well plate format. • Cell Line ID: Immortalised Mouse Dermal Fibroblasts (MDFs). • Cell Concentration (cells/well): Final cell density is 2200 cells per well. • Cell growth medium: DMEM medium+7.4% Fetal Bovine Serum (FBS). Cells are cultured in Corning 150 cm^2 tissue culture flasks with vented caps at 37° C./10% CO2. • Incubation: Plates were incubated for 30 minutes following addition of compounds and then 3 hours incubation with death stimuli (TSI cocktail) at 37° C./10% CO2 in a humidified incubator. • Compound concentration: 36 μM starting concentration, 1:3 dilution, 10 point • DMSO final concentration (% v/v): 0.3%. Compounds in TSI Cocktail (T: TNF; S: Smac Mimetic; I: IDN-6556) and their Final Concentrations: • rhTNF (100 ng/ml) • Compound A (500 nM)—Smac mimetic, Tetralogic and SYNthesis med chem • IDN-6556 (10 μM)—Selleckchem (S7775)
# The cellular assay was carried out according to the following steps: • 1. Each well was prepared by sequential addition of: • a. 40 μL of cell suspension (5.5×10^4 cells/mL) was added to each well to provide a final cell concentration of 2,200 cells per well. • b. After 24 hours, DMSO (control; columns 1-2 and 23-24) or compound in DMSO—addition was performed using acoustic transfer of nL volumes of stock compound to give final test concentrations of 36, 12, 4, 1.3, 0.44, 0.148, 0.049, 0.016, 0.005 and 0.002 μM. All wells were backfilled with DMSO to a final total volume in the well of 100 nL. • c. Following compound/DMSO addition in step (b), Plates were incubated for 30 minutes at 37° C./10% CO2 in a humidified incubator and then 10 μL of 5×TSI cocktail (except to positive controls; columns 2 and 24) was added to each well. • 2. After 3 hours, plate was removed from the 37° C. incubator and equilibrated to room temperature for 15 minutes. • 3. 15 μL of room temperature CellTitre-Glo2™ (Promega™) was added to each well. • 4. Shook plates for 2 minutes (˜600 rpm) and incubated at room temperature for 15 minutes to allow signal to stabilise. • 5. Read luminescence readout on a plate reader.
# Percent viability was calculated for each compound according to equation (2): […]
# 10 point titration curves were fitted with the 4 parameter logistic nonlinear regression model and the IC50 reported reflect the inflection point of the curve for curve fitting.
# • Assay involving the TSI cocktail (T: TNF; S: Smac mimetic; I: IDN-6556): TSI treatment ensures that cells specifically undergo necroptotic cell death. TNF activates the TNF receptor, Smac mimetic directs the signal away from proinflammatory signaling and toward the RIPK1/RIPK3-mediated cell death pathways, and IDN-6556 (Caspase inhibitor) ensures that the apoptotic response is blocked leaving only the programmed necrosis response. The compounds' activity (solution in DMSO) tested in this TSI-induced assay was evaluated by determining the number of viable cells in culture by measuring the amount of ATP present as measured by CelltiterGlo.
# Sequence of mouse MLKL (full length) (Q9D2Y4 whole entry): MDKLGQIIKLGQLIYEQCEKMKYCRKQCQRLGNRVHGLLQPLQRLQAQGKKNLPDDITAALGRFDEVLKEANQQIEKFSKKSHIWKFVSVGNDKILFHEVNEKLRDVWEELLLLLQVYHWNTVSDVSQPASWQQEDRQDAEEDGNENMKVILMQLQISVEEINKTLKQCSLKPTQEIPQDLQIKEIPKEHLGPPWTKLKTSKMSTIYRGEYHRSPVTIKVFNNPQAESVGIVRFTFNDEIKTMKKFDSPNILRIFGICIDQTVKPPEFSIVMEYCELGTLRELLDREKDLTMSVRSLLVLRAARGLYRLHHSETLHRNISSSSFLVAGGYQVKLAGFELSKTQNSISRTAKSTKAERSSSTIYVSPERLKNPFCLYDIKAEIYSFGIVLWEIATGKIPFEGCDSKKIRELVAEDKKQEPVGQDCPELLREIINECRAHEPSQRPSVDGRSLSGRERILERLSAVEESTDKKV
# Sequence of human RIPK3 (Q9Y572 whole entry): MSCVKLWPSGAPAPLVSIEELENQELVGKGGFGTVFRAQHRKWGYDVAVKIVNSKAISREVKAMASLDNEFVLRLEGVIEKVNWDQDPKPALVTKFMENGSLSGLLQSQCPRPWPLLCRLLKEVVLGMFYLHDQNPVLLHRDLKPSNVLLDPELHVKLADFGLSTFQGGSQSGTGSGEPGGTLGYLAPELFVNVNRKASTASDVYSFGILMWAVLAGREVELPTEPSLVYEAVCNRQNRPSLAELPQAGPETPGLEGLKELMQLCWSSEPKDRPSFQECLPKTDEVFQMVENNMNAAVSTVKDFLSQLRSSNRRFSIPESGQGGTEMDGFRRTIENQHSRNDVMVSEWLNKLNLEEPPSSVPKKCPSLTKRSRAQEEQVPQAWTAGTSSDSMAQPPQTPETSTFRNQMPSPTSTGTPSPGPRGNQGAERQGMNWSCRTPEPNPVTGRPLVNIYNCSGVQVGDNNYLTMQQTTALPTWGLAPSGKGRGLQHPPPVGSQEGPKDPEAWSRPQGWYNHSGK
# Sequence of human RIPK1 (Q13546 whole entry): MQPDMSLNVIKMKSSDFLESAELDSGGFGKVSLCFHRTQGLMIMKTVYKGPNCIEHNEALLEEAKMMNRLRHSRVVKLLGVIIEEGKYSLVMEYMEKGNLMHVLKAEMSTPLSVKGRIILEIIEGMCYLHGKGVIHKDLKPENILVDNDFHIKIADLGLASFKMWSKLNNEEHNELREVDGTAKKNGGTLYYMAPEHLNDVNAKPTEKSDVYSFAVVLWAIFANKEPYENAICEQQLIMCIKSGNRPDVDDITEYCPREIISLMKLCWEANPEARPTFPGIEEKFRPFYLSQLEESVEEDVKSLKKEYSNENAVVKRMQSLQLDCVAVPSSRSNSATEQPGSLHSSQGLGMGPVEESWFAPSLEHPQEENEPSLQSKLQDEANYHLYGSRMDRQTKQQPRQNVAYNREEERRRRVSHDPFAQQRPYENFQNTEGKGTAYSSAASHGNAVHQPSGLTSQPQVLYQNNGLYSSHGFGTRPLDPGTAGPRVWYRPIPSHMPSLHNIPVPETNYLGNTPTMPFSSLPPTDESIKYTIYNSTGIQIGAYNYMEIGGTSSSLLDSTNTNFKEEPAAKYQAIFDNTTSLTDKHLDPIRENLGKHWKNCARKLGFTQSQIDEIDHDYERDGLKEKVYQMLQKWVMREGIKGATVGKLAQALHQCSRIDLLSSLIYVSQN
# Sequence of human MLKL (full length) (Q8NB16 whole entry, the tested form may be a part): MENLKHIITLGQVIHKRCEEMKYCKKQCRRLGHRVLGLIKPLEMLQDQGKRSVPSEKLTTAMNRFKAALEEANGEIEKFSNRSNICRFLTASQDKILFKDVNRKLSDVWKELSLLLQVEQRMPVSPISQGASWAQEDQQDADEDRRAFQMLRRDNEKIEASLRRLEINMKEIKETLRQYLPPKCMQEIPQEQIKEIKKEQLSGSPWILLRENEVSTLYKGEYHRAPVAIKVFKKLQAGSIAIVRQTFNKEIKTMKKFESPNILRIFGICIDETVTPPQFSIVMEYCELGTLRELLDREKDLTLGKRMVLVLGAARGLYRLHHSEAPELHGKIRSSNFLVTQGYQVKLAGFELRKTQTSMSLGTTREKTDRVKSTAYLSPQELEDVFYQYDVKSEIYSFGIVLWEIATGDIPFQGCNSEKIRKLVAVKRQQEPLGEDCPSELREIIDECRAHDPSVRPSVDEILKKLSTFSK
SMILES,Kd (human MLKL (full length)),Kd (human RIPK3),Kd (human RIPK1),Kd (mouse MLKL (full length)),IC50 (U937 cells),IC50 [1],IC50 [2]
"C[C@H](Oc1cc(-c2nn(C)c3c(-c4cnn(C5CCN(CC(F)(F)F)CC5)c4)cnc(N)c23)ccc1NS(=O)(=O)C(F)F)c1ccc(F)cc1 [Compound 61, (S)-N-(4-(4-amino-1-methyl-7-(1-(1-(2,2,2-trifluoroethyl)piperidin-4-yl)-1H-pyrazol-4-yl)-1H-pyrazolo[4,3-c]pyridin-3-yl)-2-(1-(4-fluorophenyl)ethoxy)phenyl)-1,1-difluoromethanesulfonamide]",0.001 to 0.1 µM,> 10 µM,> 10 µM,0.001 to 0.1 µM,> 10 µM,0.01 to 1 µM,
"C[C@H](Oc1cc(-c2coc3c(-c4cnn(C5CCOCC5)c4)cnc(N)c23)ccc1NS(=O)(=O)C(F)F)c1ccc(F)cc1 [Compound 7, (S)-N-(4-(4-amino-7-(1-(tetrahydro-2H-pyran-4-yl)-1H-pyrazol-4-yl)furo[3,2-c]pyridin-3-yl)-2-(1-(4-fluorophenyl)ethoxy)phenyl)-1,1-difluoromethanesulfonamide]",0.001 to 0.1 µM,> 10 µM,> 10 µM,< 0.001 µM,1 to 10 µM,0.01 to 1 µM,
"C[C@H](Oc1cc(-c2nn(C)c3c(-c4cnn(CCN5CCN(C)CC5)c4)cnc(N)c23)ccc1NS(=O)(=O)C(F)F)c1ccc(F)cc1 [Compound 60, (S)-N-(4-(4-amino-1-methyl-7-(1-(2-(4-methylpiperazin-1-yl)ethyl)-1H-pyrazol-4-yl)-1H-pyrazolo[4,3-c]pyridin-3-yl)-2-(1-(4-fluorophenyl)ethoxy)phenyl)-1,1-difluoromethanesulfonamide]",0.001 to 0.1 µM,> 10 µM,> 10 µM,< 0.001 µM,> 10 µM,0.01 to 1 µM,
"Nc1ncc(-c2cnn(C3CCOCC3)c2)c2occ(-c3ccc(NS(=O)(=O)CC(F)(F)F)c(OCc4ccc(F)cc4)c3)c12 [Compound 11, N-(4-(4-amino-7-(1-(tetrahydro-2H-pyran-4-yl)-1H-pyrazol-4-yl)furo[3,2-c]pyridin-3-yl)-2-((4-fluorobenzyl)oxy)phenyl)-2,2,2-trifluoroethane-1-sulfonamide]",0.001 to 0.1 µM,> 10 µM,> 10 µM,0.001 to 0.1 µM,,,1 to 10 µM

# More lines, main results first:
Kd (human MLKL (full length)),Kd (human RIPK3),Kd (human RIPK1),Kd (mouse MLKL (full length)),SMILES,IC50 (U937 cells),IC50 [1],IC50 [2]
< 0.001 µM,> 10 µM,> 10 µM,< 0.001 µM,"C[C@H](Oc1cc(-c2nn(C)c3c(-c4cnn(CCO)c4)cnc(N)c23)ccc1NS(=O)(=O)C(F)F)c1ccc(F)cc1 [Compound 15, (S)-N-(4-(4-amino-7-(1-(2-hydroxyethyl)-1H-pyrazol-4-yl)-1-methyl-1H-pyrazolo[4,3-c]pyridin-3-yl)-2-(1-(4-fluorophenyl)ethoxy)phenyl)-1,1-difluoromethanesulfonamide]",> 10 µM,0.01 to 1 µM,
< 0.001 µM,> 10 µM,> 10 µM,0.001 to 0.1 µM,"C[C@H](Oc1cc(-c2ccnc3[nH]nc(N)c23)ccc1NS(=O)(=O)C(F)F)c1ccc(F)cc1 [Compound 72, N-(4-(3-Amino-1H-pyrazolo[3,4-b]pyridin-4-yl)-2-((1S)-1-(4-fluorophenyl)ethoxy)phenyl)-1,1-difluoromethanesulfonamide]",> 10 µM,0.01 to 1 µM,
< 0.001 µM,> 10 µM,> 10 µM,< 0.001 µM,"C[C@H](Oc1cc(-c2nn(C)c3c(-c4cnn(C)c4)cnc(N)c23)ccc1NS(=O)(=O)C(F)F)c1ccc(F)cc1 [Compound 20, (S)-N-(4-(4-amino-1-methyl-7-(1-methyl-1H-pyrazol-4-yl)-1H-pyrazolo[4,3-c]pyridin-3-yl)-2-(1-(4-fluorophenyl)ethoxy)phenyl)-1,1-difluoromethanesulfonamide]",> 10 µM,0.01 to 1 µM,
< 0.001 µM,> 10 µM,> 10 µM,0.001 to 0.1 µM,"C[C@H](Oc1cc(-c2nn(C)c3c(-c4ccncc4)cnc(N)c23)ccc1NS(=O)(=O)C(F)F)c1ccc(F)cc1 [Compound 18, (S)-N-(4-(4-amino-1-methyl-7-(pyridin-4-yl)-1H-pyrazolo[4,3-c]pyridin-3-yl)-2-(1-(4-fluorophenyl)ethoxy)phenyl)-1,1-difluoromethanesulfonamide]",> 10 µM,0.01 to 1 µM,
